Experimental data from patent publication US20160166572A1, “BENEFICIAL EFFECTS OF Lp-PLA2 INHIBITORS IN TREATMENT OF DIABETIC RETINOPATHY AND AGE-RELATED MACULAR DEGENERATION” (Rowan University, priority 2014, published 2016).

Key:
occludin = assay: Occludin protein expression in BVECs of cerebral cortex (IHC, MATLAB), DMHC pigs; type: in vivo, pig; conditions: Darapladib 10 mg/kg/d orally, 24 weeks
Procedure: Briefly, after induction of diabetes by a single injection of Streptozotocin, animals were fed a high cholesterol diet. After a month of DMHC induction and acclimation, animals were randomly segregated to untreated DMHC and Darapladib-treated DMHC groups. Darapladib-treated pigs received 10 mg/kg/d of Darapladib orally. Three of the pigs were spared from DMHC induction and served as age-matched, non-DMHC normal controls. Twenty four weeks after acclimation, animals were euthanized and their brains and eyes were immediately removed. Brains were divided anteroposteriorly into anterior, middle and posterior regions. For each of these brain regions, 2-3 tissue blocks were generated for routine tissue fixation (10% formalin) or freezing and histological processing. The anterior cortical region comprised of anterior 2⁄3 of frontal lobe and anterior 1⁄3 of temporal lobe. The middle cortical region contained mid 1⁄3 of temporal lobe and anterior 1⁄2 of the parietal lobe. The posterior cortex included the posterior 1⁄2 of the parietal lobe, posterior 1⁄3 of the temporal lobe and the occipital lobe. Eyes were dissected longitudinally to sever the retina at the optic nerve. The sections were fixed in 10% formalin and embedded as flattened disc in paraffin. The tissue samples were processed using routine histology techniques. Standard Hematoxylin & Eosin (H&E) staining (FIG. 1) was carried out in retinal sections. […] Extravasated IgG was detected using biotinylated anti-swine IgG antibody (Vector laboratories, Inc., Catalogue # BA-9020; dilution 1:100). […] Slides were examined and photographed with a Nikon FXA microscope, and digital images were recorded using a Nikon DXM1200F digital camera and analyzed using MATLAB (MathWorks, Mass., USA) and NIS-elements software (Nikon, Melville, N.Y.). […] Claudin5 and occludin protein expression in pig cerebral cortex was evaluated semi-quantitatively using IHC by taking images at five random locations as described previously. Images were analyzed using MATLAB (MathWorks, Mass., USA). […]

porcine retina = assay: Cell number in retinal GCL and INL by counting DAPI-positive nuclei, DMHC pigs; type: in vivo, pig; conditions: Darapladib 10 mg/kg/d orally, 24 weeks, FIG. 3D-E
Procedure: Briefly, after induction of diabetes by a single injection of Streptozotocin, animals were fed a high cholesterol diet. After a month of DMHC induction and acclimation, animals were randomly segregated to untreated DMHC and Darapladib-treated DMHC groups. Darapladib-treated pigs received 10 mg/kg/d of Darapladib orally. Three of the pigs were spared from DMHC induction and served as age-matched, non-DMHC normal controls. Twenty four weeks after acclimation, animals were euthanized and their brains and eyes were immediately removed. Brains were divided anteroposteriorly into anterior, middle and posterior regions. For each of these brain regions, 2-3 tissue blocks were generated for routine tissue fixation (10% formalin) or freezing and histological processing. The anterior cortical region comprised of anterior ⅔ of frontal lobe and anterior ⅓ of temporal lobe. […] Cells positive for GFAP were counted throughout the whole thickness of the retina, and then quantified using ImagePro7.0 (Media Cybernetics, Silver Spring, Md.). Briefly, a 300×300 pixel square area was randomly made in each retinal section in three contiguous locations across the retina and the positive GFAP area was determined per total area using a fixed threshold. […] Cell number was determined by counting the DAPI-positive nuclei in a fixed area. […]

## CCN(CC)CCN(Cc1ccc(-c2ccc(C(F)(F)F)cc2)cc1)C(=O)Cn1c(SCc2ccc(F)cc2)nc(=O)c2c1CCC2 [Darapladib]
occludin; FIG. 7E
  occludin protein expression, middle cortex: comparable levels of occludin expression
occludin; rank among treatment groups, FIG. 7D
  occludin protein expression, anterior cortex: highest level of occludin expression
occludin; rank among treatment groups, FIG. 7F
  occludin protein expression, posterior cortex: lowest expression
Porcine retina
  cell number (nuclei) in GCL: comparable to controls
  cell number (nuclei) in INL: comparable to controls
